Experimental data reported in patent US12589101B2, “Cyclodextrin protein drug conjugates” (Regeneron Pharmaceuticals, Inc., priority 2017, dated 2026).
In brackets after ≈: the same amount, converted by molar mass. Where two headings read alike, the source gives them in different places. Square brackets hold non-standard residues; d marks the D form. Peptide text beside a SMILES is read from it. * marks the point of attachment. Dolaproine = CO[C@@H]([C@@H]1CCCN1)[C@@H](C)C(=O)O; Dil = CC[C@H](C)[C@H](NC)[C@@H](CC(=O)O)OC; X1 = C[C@@H](N*)[C@@H](O)c1ccccc1; NMeV = CN[C@H](C(=O)O)C(C)C

Legend:
SKBR3 cells = experiment: SKBR3 cytotoxicity assay (CellTiter-Glo); assay type: cell-based
Procedure: To assess the comparability of ADCs with and without CDs containing cytotoxic payloads, a cytotoxicity assay used SKBR3 cells. SKBR3 cells have been commonly used to assess aHer2 ADC activity. An aPRLR ADC has been used as a control mAb ADC in the SKBR3 cytotoxicity assay. For the assay, in vitro cytotoxicity of anti-Her2 ADCs or PRLR ADCs were evaluated using the CellTiter-Glo Assay Kit (Promega, Cat #G7573), in which the quantity of ATP present is used to determine the number of viable cells in culture. For the assay, SKBR3 cells were seeded at 6000 cells/well on Nunclon white 96 well plates in complete growth medium and grown overnight at 37° C. in 5% CO2. For cell viability curves, 1:4 serially diluted ADCs or free payload MMAE were added to the cells at concentrations starting at 100 nM including a no treatment control and were then incubated for 5 days. After the 5-day incubation, cells were incubated at room temperature with 100 μL of CellTiter-Glo reagents for 5 minutes. Relative luminescence units (RLU) were determined on a Victor plate reader (PerkinElmer). The IC50 values were determined from a four-parameter logistic equation over a 10-point response curve (GraphPad Prism). All curves and EC50 values were corrected for payload equivalents. All IC50s are expressed in nM concentration and percentage of cells killed (% kill) is reported for the highest concentration tested.

LXR = tested on: T1, LXR; experiment: THP1/LXR-Luc/Her2 bioassay (LXR activation, luciferase); assay type: cell-based; conditions: THP1/LXR-Luc/Her2 cells, 48-hour incubation
T1 construct: other: THP1/LXR-Luc/Her2 cells, 48-hour incubation, relative to free payload 1d; other: THP1/LXR-Luc/Her2 cells, 48-hour incubation; other: THP1/Her2/LXR-Luc cells; other: differentiated THP1/LXR-Luc cells, 48 hours; other: THP1/LXR-Luc cells, PMA
Procedure: To test the comparability of ADCs with and without CDs containing LXR agonists anti-HER2 Ab ADC with and without CD were tested for their ability to activate LXR in a THP1/LXR-Luc/Her2 bioassay. In the assay, either THP1/LXR-Luc cells or THP1/LXR-Luc/Her2 cells were seeded onto white 96 well plates at 30,000 cells/well in media containing RPMI supplemented with 10% FBS and pencillin/streptomycinin (complete media). Subsequently 3-fold serial dilutions of antibody drug conjugates, unconjugated antibodies, or free payloads were added to the cells at final concentration ranging from 100 nM to 0.01 nM. After a 48-hour incubation, luciferase activity was determined after the addition of One-Glo™ reagent (Promega, E6130) to each well of cells. Relative light units (RLUs) were measured on a Victor luminometer (PerkinElmer) and the EC50 values were determined using a four-parameter logistic equation over a 10-point dose response curve (GraphPad Prism).

[1] = Solubility of linker-payloads (LC-MS standard curve, saturated solution); assay type: physicochemical; conditions: aqueous with cosolvent or surfactant or cyclodextrin, thermodynamic from solid, in 10% DMSO/H2O; read-out: Solubility in other solvents
Human liver Cathepsin B = molecular target: T2, Human liver Cathepsin B (Homo sapiens, UniProt P07858); experiment: Cathepsin B cleavage assay, payload released (Example 73); assay type: biochemical; conditions: 37° C., 50 μM substrate, pH 5
T2 construct: Human liver Cathepsin B (Athens Research & Technology, Cat #16-12-030102); purchased Athens Research & Technology 16-12-030102; host or cells: human liver
Procedure: To determine the effect on the cleavage efficiency on a steroid or LXR agonist payload when a cyclodextrin moiety was added in the linker, a Cathepsin B cleavage assay was performed. For the assay, the linker-payload stock solution (10 mM of linker-payload in DMSO) was added into a solution of 100 mM NaOAc, 10 mM dithiothreitol, at pH5 to obtain a 50 μM substrate solution. Human liver Cathepsin B (Athens Research & Technology, Cat #16-12-030102) in 50 mM NaOAc, 1 mM EDTA, at pH 5, was added to the substrate solution. The Cathepsin B and substrate solution was mixed with and without 10 mM of a Cathepsin B inhibitor (CA074; APE Bio, Cat #A1926), and incubated at 37° C. for 4 hours. Following the 4 hour incubation, acetic acid and then acetonitrile were added to stop the reaction. The quenched samples then underwent centrifugation at 14,000 rpm. Aliquots of the resultant supernatants were then diluted with equal volume of water and analyzed by LC/MS to determine the amount of payload released. The stability and activity of Cathepsin B was confirmed by incubating with 200 μM fluorogenic substrate for Cathepsin B (Santa Cruz Biotechnology, Cat #207975) (fluorescence at excitation of 340 nm/emission of 425 nm).

Cathepsin B = Cathepsin B (Homo sapiens, UniProt P07858); experiment: Cathepsin B cleavage rate of linker-payloads (Example 66); assay type: biochemical; conditions: Cathepsin B cleavage rate
Procedure: Step 1: Preparation of Cathepsin B buffer: 0.1 M NaOAc/0.01M DTT (pH5.0) Dissolve 8.3 g/L NaOAc, 1.54 g/L DTT in deionized water. Adjust pH to 5.0 with HCl/sodium hydroxide.
Step 2: Test Cleavage Rate
• 1. Prepare 25 μM of testing sample: To a 2-mL-tube was added 0.5 mg of testing sample, followed by the addition of 0.2 mL of DMSO. The solution was added dropwise into 0.8 mL of 0.1 M NaOAc/0.01 M DTT buffer. The obtained mixtures were sonicated for 5 minutes to obtain clear and colorless solutions. The pH value of the solution was around 5 according to pH test strip. • 2. Preheat assay buffer: 0.1 M NaOAc/0.01 M DTT (pH 5.0) • 3. Spiking solutions for test compounds: 25 μM Spiking solutions for test compounds: Add 2 μL of 5 mM stock solution into 398 μL of 0.1 M NaOAc/0.01 M DTT buffer (pH 5.0). • 4. Prepare 0.47 μg/μL Cathepsin B in 50 mM NaOAc/1 mM EDTA (pH 5.0). Put on ice. • 5. Without CA074 samples: Add 4 μL of 0.47 μg/μL Cathepsin B into 196 μL of 25 μM Spiking solutions (from step 2), incubate the tubes at 37° C. • 6. With CA074 samples: Add 4 μL of 0.47 μg/μL Cathepsin B with 4 μL of 10 mM Inhibitor (CA074) into 196 μL of 25 μM Spiking solutions (from step 2), incubate the tubes. • 7. After quenching, shake the plate and centrifuge them at 14000 rpm. • 8. Transfer 50 μL of the supernatant from each well into a 96-well sample plate containing 50 μL of ultra pure water (Millipore, ZMQS50F01) for LC/MS analysis. Step 3: Test reference compounds: • 9. Preheat assay buffer: 100 mM Na/K phosphate, pH 6.0, with 1.33 mM EDTA and 2 mM DTT. • 10. Prepare 0.024 μg/μL Cathepsin B: Add 1 μL of 0.47 μg/μL Cathepsin B stock into 19 μL of assay buffer (from step 11). • 11. Add 2 μL of 0.024 μg/μL Cathepsin B (from step 12) to a opaque 96-well plate. • 12. Add 96 μL of assay buffer to each sample. • 13. Add 2 μL of the 10 mM substrate Z-RR-MNA (200 μM final concentration). • 14. For negative control (With inhibitor), add 2 μL of 10 mM Inhibitor (CA074): Immediately read the samples in a kinetic mode at excitation of 340 nm/emission of 425 nm (Read the plate every 30 Second for 3 min). Step 4: Stability of Cathepsin B in incubation samples: • 15. Take 5 μL of incubation samples into 93 μL of assay buffer (from step 11), and then add 2 μL of 10 mM substrate (Z-RR-MNA). • 16. Incubate the samples at 37° C. for 2 min. • 17. Read the samples at excitation of 340 nm/emission of 425 nm.

[2] = Solubility of linker-payloads (LC-MS standard curve, saturated solution); assay type: physicochemical

For `CC[C@H](C)[C@@H]([C@@H](CC(=O)N1CCC[C@H]1[C@H](OC)[C@@H](C)C(=O)N[C@H](C)[C@@H](O)c1ccccc1)OC)N(C)C(=O)[C@@H](NC(=O)[C@@H](NC)C(C)C)C(C)C` [MMAE] (H-[NMeV]V[Dil][Dolaproine]-X1), the EC50 (SKBR3 cells; Homo sapiens, SK-BR-3, 120 h) was 0.19 nM and the “% kill” value (SKBR3 cells; SKBR3 cells, 5 days, highest concentration tested) was at least 90%.
With `C[C@]1(C(=O)NC(=O)[C@@]2(C)CCC[C@]3(C)c4cc(O)ccc4CC[C@@H]23)CCC[C@]2(C)c3cc(N)ccc3CC[C@@H]12` [Example 1d, (1S,4aS,10aR)-N-[(1S,4aS,10aR)-6-Amino-1,4a-dimethyl-1,2,3,4,4a,9,10,10a-octahydrophenanthrene-1-carbonyl]-6-hydroxy-1,4a-dimethyl-1,2,3,4,4a,9,10,10a-octahydrophenanthrene-1-carboxamide] the EC50 (LXR) was 2.8 nM and the Maximal activation (LXR; relative to free payload 1d) was “Full activation”.
`CCCC1O[C@@H]2C[C@H]3[C@@H]4CCC5=CC(=O)C=C[C@]5(C)[C@H]4[C@@H](O)C[C@]3(C)[C@]2(C(=O)COc2ccc(NC(=O)[C@H](C)NC(=O)[C@@H](NC(=O)[C@@H](CCCCNC(=O)COC3CCCCCc4c3nnn4CC3OC4OC5C(CO)OC(OC6C(CO)OC(OC7C(CO)OC(OC8C(CO)OC(OC9C(CO)OC(OC3C(O)C4O)C(O)C9O)C(O)C8O)C(O)C7O)C(O)C6O)C(O)C5O)NC(=O)CCOCCOCCOCCOCCNC(=O)CCC(=O)N3Cc4ccccc4C#Cc4ccccc43)C(C)C)cc2)O1` (stereo partly shown) [Ex46] gave a solubility at 10 min [1] of 100 µg/mL (≈ 39.7 µM).
With `CC(C)[C@H](NC(=O)[C@@H](CCCCNC(=O)COC1CCCCCc2c1nnn2CC1OC2OC3C(CO)OC(OC4C(CO)OC(OC5C(CO)OC(OC6C(CO)OC(OC7C(CO)OC(OC1C(O)C2O)C(O)C7O)C(O)C6O)C(O)C5O)C(O)C4O)C(O)C3O)NC(=O)CCOCCOCCOCCOCCNC(=O)CCC(=O)N1Cc2ccccc2C#Cc2ccccc21)C(=O)N[C@@H](C)C(=O)Nc1ccc2c(c1)[C@@]1(C)CCC[C@](C)(C(=O)NC(=O)[C@@]3(C)CCC[C@]4(C)c5cc(O)ccc5CC[C@@H]34)[C@@H]1CC2` (stereo partly shown) [Ex49] the “Percent of payload released at 4 hrs” value (Human liver Cathepsin B) was 38.5%, the capB (Cathepsin B; Table 8A) was 38.5% [1] and the “CapB (%)” value (Cathepsin B; pH 5.0, 37° C.) was “% % (60< % % ≤70 CapB (%))”. For the same molecule, the “Concentration (mM) of saturated solution” value ([2]; 10 min) was 0.019 mM, the Solubility ([2]; 10 min) was 0.05 mg/ mL mg/mL and the solubility thermodynamic at 10 min ([2]; water, thermodynamic from solid) was 48 µg/mL (≈ 19 µM). For the same molecule, the solubility at 10 min ([2]; water, thermodynamic from solid, Aq. Solubility (mg/mL)) was 50 µg/mL (≈ 19.8 µM) and the solubility at 10 min ([2]; water, thermodynamic from solid, Solubility) was 50 µg/mL (≈ 19.8 µM).
